Entries after “also recorded” stand apart in the source; their conditions may differ.
Experiments:
9 L tumor cell line = assay: In vitro cell uptake studies of the four 4-[18F]F-glutamine isomers; format: cell-based, rat; settings: 18F-labeled isomer, 37° C., 5-120 min, compared to [3H]glutamine
Procedure: Cell uptake of four possible isomers was evaluated using 9 L tumor cell line. The cell uptake results (% dose/100 μg protein) were compared to that of [^3H] glutamine.
(§1) Because of this observation, we decided only to further investigate the (2S,4R) isomer of [^18F]4-FGln, 1. In vitro cell uptake inhibition studies were conducted in 9 L cells in order to test the specificity of [^18F]4-FGln (2S,4R), 1. Cold L-glutamine and L-serine served as the positive control inhibitors for the glutamine transporters. L-glutamine inhibits system N transporter and L-serine inhibits the ASC transporter. Three different concentrations were tested for each inhibitor ranging from 0.5 mM to 5 mM. After 30 minutes of co-incubation of L-glutamine and [^18F] […] Cold MeAIB served as the negative control, which inhibits system A transporter.
(§2) The cellular uptake of each of the four 4-[^18F]F-glutamine isomers (2S,4R), (2S,4S), (2R,4S) and (2R,4R) were studied in (9 L) rat brain gliosarcoma cells. L-[3,4-^3H(N)]-glutamine, >97%, 250 μCi (9.25 MBq), was purchased from Perkin Elmer and was used as a control for all of the cellular uptake experiments conducted. […] All four of the 4-[^18F]F-glutamine isomers and the L-[3,4-^3H(N)]-glutamine was dissolved in PBS solution and was added to each well (500,000 cpm/mL/well) and incubated at 37° C. for 5, 30, 60, 120 min. At the end of the incubation period, the wells were aspirated and then the residual cells were washed 3 times with 1 mL ice cold PBS without Ca^2+ and Mg^2+. After washing with cold PBS, 350 μL 1M NaOH was used to lyse the cells. The lysed cells were collected onto filter paper. The filter papers were placed in scintillation vials and counting fluid was added (7 mL ecolite+) and the vials were then counted with a beta counter 18-24 h later. For dual-isotope studies using 4-[^18F]F-glutamine isomers and L-[3,4-^3H(N)]-glutamine, the vials were counted first using a gamma counter to obtain ^18F counts. The beta counts were then obtained one day later after the ^18F was fully decayed. 100 μL of the cell lysate was used for the determination of the protein concentration by Lowry method.

9 L cells = assay: In vitro inhibition studies of 4-[18F]F-glutamine (2S,4R) uptake; format: cell-based, rat; settings: for effect of inhibitor on tracer uptake / transporter (in words): 0.5 mM to 5 mM; for uptake of [18F]4-FGln (2S,4R) in presence of inhibitor: 30 minutes co-incubation, 5 mM stated for MeAIB, control 3.56
Procedure: as §1, §2
To test the specificity of the 4-[^18F]F-glutamine (2S,4R) isomer, inhibition studies were conducted using 9 L cells. The tracer was incubated at 37° C. for 30 min. The cells were processed as previously described as above. Cold L-glutamine and L-Serine served as the positive control inhibitors for the glutamine transporters. L-glutamine inhibits system N transporter and L-Serine inhibits the ASC transporter. Cold MeAIB served as the negative control, which inhibits system A transporter. Three different concentrations were tested for each inhibitor ranging from 0.5 mM to 5 mM.

[1] = tested on: M/tomND spontaneous human mammary tumors; assay: Dynamic small animal PET (A-PET) imaging; format: in vivo, mice; settings: ~300 μCi via lateral tail vein, 120 minutes imaging, myc gene up-regulated
Procedure: Dynamic small animal PET (A-PET) imaging studies were conducted with 4-[^18F]F-glutamine (2S,4R) isomer. All scans were performed on a dedicated animal PET scanner (Mosaic by Phillips) (Surti, 2005). Transgenic mice bearing M/tomND spontaneous human mammary tumors were used in this study. There are many advantages to using this transgenic mouse model. A doxycycline sensitive promoter genetically engineers these mice to express the myc gene. These tumors spontaneously arise vs. traditional xenograph tumors. […] When doxycycline is removed, the myc gene is down regulated. This model was chosen because these compounds will allow a direct correlation between true glutamine uptake and the level of myc gene expression.
Glutamine uptake within the M/tomND tumor was examined by injecting ˜300 μCi of the [^18F]-4F-glutamine (2S,4R) isomer via the lateral tail vein. Imaging commenced immediately after the injection of the tracer and continued for a time period of 120 minutes.

[2] = In vivo biodistribution study in normal mice; settings: for % Dose/Gram, Blood / % Dose/Gram, Bone / % Dose/Gram, Brain / % Dose/Gram, Heart / % Dose/Gram, Kidney / % Dose/Gram, Liver / % Dose/Gram, Lung / % Dose/Gram, Muscle / % Dose/Gram, Pancreas / % Dose/Gram, Skin / % Dose/Gram, Spleen: normal ICR mice, n = 5
Procedure: To test the [^18F]-4F-glutamine isomers as a novel tumor PET imaging agents, we tested the [^18F]-4F-glutamine (2S,4R) (1) in normal ICR mice weighing 20-25 grams. 5 mice per group were used for the biodistrubution study. The mice were put under anesthesia with the use of isoflurane and 0.15 mL saline solution containing 25 μCi of each isomer was injected via the lateral tail vein. The mice were sacrificed at 2, 30, 60, 120 and 240 minutes post-injection by cardiac excision while under isoflurane anesthesia. The organs of interest were removed, weighed and the radioactivity was counted with a gamma counter (Packard Cobra). The percent dose per gram was calculated by a comparison of the tissue activity counts to counts of 1.0% of the initial dose. The initial dose consists of 100 times diluted aliquots of the injected material measured at the same rate.

## NC(=O)[C@H](F)C[C@H](N)C(=O)O [Compound 1, (2S,4R)-2,5-Diamino-4-fluoro-5-oxopentanoic acid]
9 L tumor cell line; listed as 4-FGln (2S,4R)
  cell uptake in 9 L cells (in words): high uptake; also recorded: excellent uptake

## NC(=O)[C@H]([18F])C[C@H](N)C(=O)O [Compound 1, (2S,4R)-2,5-Diamino-4-fluoro-5-oxopentanoic acid]
9 L tumor cell line
  cell uptake in 9 L cells (in words): highest uptake
9 L cells; 30 min, 37° C.
  uptake of [18F]4-FGln (2S,4R) without inhibitor (control): 3.56 % dose/100 ug protein
[1]
  tumor uptake in PET images (in words): taken up in the tumor sites
[2]; 2 min post-injection, iv
  % Dose/Gram, Blood: 6.19 ± 0.83 % Dose/Gram
  % Dose/Gram, Bone: 3.93 ± 0.37 % Dose/Gram
  % Dose/Gram, Brain: 0.54 ± 0.05 % Dose/Gram
  % Dose/Gram, Heart: 4.31 ± 0.32 % Dose/Gram
  % Dose/Gram, Kidney: 16.1 ± 1.03 % Dose/Gram
  % Dose/Gram, Liver: 6.92 ± 0.92 % Dose/Gram
  % Dose/Gram, Lung: 7.15 ± 0.76 % Dose/Gram
  % Dose/Gram, Muscle: 1.62 ± 0.10 % Dose/Gram
  % Dose/Gram, Pancreas: 17.2 ± 1.00 % Dose/Gram
  % Dose/Gram, Skin: 2.72 ± 0.05 % Dose/Gram
  % Dose/Gram, Spleen: 7.51 ± 0.44 % Dose/Gram
[2]; 30 min post-injection, iv
  % Dose/Gram, Blood: 2.72 ± 0.17 % Dose/Gram
  % Dose/Gram, Bone: 5.64 ± 0.69 % Dose/Gram
  % Dose/Gram, Brain: 0.51 ± 0.05 % Dose/Gram
  % Dose/Gram, Heart: 3.16 ± 0.25 % Dose/Gram
  % Dose/Gram, Kidney: 9.93 ± 0.52 % Dose/Gram
  % Dose/Gram, Liver: 6.23 ± 0.50 % Dose/Gram
  % Dose/Gram, Lung: 5.36 ± 0.49 % Dose/Gram
  % Dose/Gram, Muscle: 2.48 ± 0.16 % Dose/Gram
  % Dose/Gram, Pancreas: 19.7 ± 2.16 % Dose/Gram
  % Dose/Gram, Skin: 4.01 ± 0.24 % Dose/Gram
  % Dose/Gram, Spleen: 5.39 ± 0.72 % Dose/Gram
[2]; 60 min post-injection, iv
  % Dose/Gram, Blood: 2.05 ± 0.16 % Dose/Gram
  % Dose/Gram, Bone: 7.93 ± 1.02 % Dose/Gram
  % Dose/Gram, Brain: 0.53 ± 0.07 % Dose/Gram
  % Dose/Gram, Heart: 2.86 ± 0.47 % Dose/Gram
  % Dose/Gram, Kidney: 7.60 ± 0.84 % Dose/Gram
  % Dose/Gram, Liver: 5.70 ± 0.62 % Dose/Gram
  % Dose/Gram, Lung: 4.37 ± 0.28 % Dose/Gram
  % Dose/Gram, Muscle: 2.86 ± 0.34 % Dose/Gram
  % Dose/Gram, Pancreas: 17.5 ± 2.28 % Dose/Gram
  % Dose/Gram, Skin: 2.94 ± 0.68 % Dose/Gram
  % Dose/Gram, Spleen: 4.22 ± 0.38 % Dose/Gram
[2]; 120 min post-injection, iv
  % Dose/Gram, Blood: 0.83 ± 0.12 % Dose/Gram
  % Dose/Gram, Bone: 14.4 ± 1.31 % Dose/Gram
  % Dose/Gram, Brain: 0.57 ± 0.05 % Dose/Gram
  % Dose/Gram, Heart: 1.86 ± 0.24 % Dose/Gram
  % Dose/Gram, Kidney: 2.15 ± 0.34 % Dose/Gram
  % Dose/Gram, Liver: 2.46 ± 0.26 % Dose/Gram
  % Dose/Gram, Lung: 1.69 ± 0.10 % Dose/Gram
  % Dose/Gram, Muscle: 1.81 ± 0.26 % Dose/Gram
  % Dose/Gram, Pancreas: 9.57 ± 1.22 % Dose/Gram
  % Dose/Gram, Skin: 2.17 ± 0.16 % Dose/Gram
  % Dose/Gram, Spleen: 2.02 ± 0.16 % Dose/Gram
[2]; 240 min post-injection, iv
  % Dose/Gram, Blood: 0.48 ± 0.06 % Dose/Gram
  % Dose/Gram, Bone: 19.4 ± 0.50 % Dose/Gram
  % Dose/Gram, Brain: 0.45 ± 0.06 % Dose/Gram
  % Dose/Gram, Heart: 1.24 ± 0.19 % Dose/Gram
  % Dose/Gram, Kidney: 1.25 ± 0.21 % Dose/Gram
  % Dose/Gram, Liver: 1.30 ± 0.18 % Dose/Gram
  % Dose/Gram, Lung: 1.03 ± 0.15 % Dose/Gram
  % Dose/Gram, Muscle: 0.94 ± 0.15 % Dose/Gram
  % Dose/Gram, Pancreas: 5.92 ± 0.87 % Dose/Gram
  % Dose/Gram, Skin: 1.25 ± 0.13 % Dose/Gram
  % Dose/Gram, Spleen: 1.15 ± 0.14 % Dose/Gram
[2]; after 30 min, normal mice, iv
  pancreas to liver ratio: 4 to 1
[2]; inferred from increasing bone uptake at later time points
  in vivo de-fluorination (in words): likely that there was in vivo de-fluorination

## NC(=O)[C@@H](F)C[C@@H](N)C(=O)O [Compound 3, (2R,4S)-4-FGln]
9 L tumor cell line
  cell uptake in 9 L cells (in words): lower cell uptake

## NC(=O)[C@H](F)C[C@@H](N)C(=O)O [Compound 4, (2R,4R)-4-FGln]
9 L tumor cell line
  cell uptake in 9 L cells (in words): lower cell uptake

## NC(=O)CC[C@H](N)C(=O)O [L-glutamine]
9 L cells; 30 min
  effect of inhibitor on tracer uptake / transporter (in words): clearly inhibited
9 L cells
  uptake of [18F]4-FGln (2S,4R) in presence of inhibitor: 0.49 % dose/100 ug protein
9 L cells; Rattus norvegicus, 0.5 h, 30 min, [5 mM], read-out: inhibition of [18F]4-FGln (2S,4R) uptake
  inhibition at 5000 µM: ~90%

## N[C@@H](CO)C(=O)O [L-serine]
9 L cells; 30 min
  effect of inhibitor on tracer uptake / transporter (in words): considerable inhibition
9 L cells
  uptake of [18F]4-FGln (2S,4R) in presence of inhibitor: 1.41 % dose/100 ug protein

## CNC(C)(C)C(=O)O [MeAIB]
9 L cells; 30 min
  effect of inhibitor on tracer uptake / transporter (in words): little to no effect
9 L cells
  uptake of [18F]4-FGln (2S,4R) in presence of inhibitor: 3.69 % dose/100 ug protein
